Measured values taken from ChEMBL document CHEMBL5241112, “Insights into the recent progress in the medicinal chemistry of pyranopyrimidine analogs” (RSC Med Chem, 2022).
In brackets after ≈: the same amount, converted by molar mass.

Key:
A549 = experiment: Anticancer activity against human A549 cells assessed as reduction in cell viability incubated for 24 hrs by MTT assay; assay type: functional, cell-based; conditions: A549, 24 h
HepG2 [1] = experiment: Anticancer activity against human HepG2 cells assessed as reduction in cell viability incubated for 24 hrs by MTT assay; assay type: functional, cell-based; conditions: HepG2, 24 h
U-937 = experiment: Induction of apoptosis in human U-937 cells assessed as total apoptotic cells at 50 uM incubated for 50 hrs by FACS analysis; assay type: functional
NUGC = experiment: Anticancer activity against human NUGC cells assessed as cell growth inhibition incubated for 24 hrs; assay type: functional, cell-based
HepG2 [2] = experiment: Anticancer activity against human HepG2 cells assessed as cell growth inhibition incubated for 24 hrs; assay type: functional, cell-based; conditions: HepG2, 24 h
DLD-1 = experiment: Anticancer activity against human DLD-1 cells assessed as cell growth inhibition incubated for 24 hrs; assay type: functional, cell-based; conditions: DLD-1, 24 h
MCF7 = experiment: Anticancer activity against human MCF7 cells assessed as cell growth inhibition incubated for 24 hrs; assay type: functional, cell-based; conditions: MCF7, 24 h
HA22T cell line = experiment: Anticancer activity against human HA22T cells assessed as cell growth inhibition incubated for 24 hrs; assay type: functional, cell-based
HONE1 cell line = experiment: Anticancer activity against human HONE1 cell line assessed as cell growth inhibition incubated for 24 hrs; assay type: functional, cell-based; conditions: HONE1, 24 h
Human alphaherpesvirus 1 [3] = experiment: Antiviral activity against HSV-1 assessed as inhibition of viral replication at 40 ug; assay type: functional; design: scale not given: the % may be the effect or the level left; conditions: dose 40 µg
Human alphaherpesvirus 1 [4] = experiment: Antiviral activity against HSV-1 assessed as inhibition of viral replication at 20 ug; assay type: functional; design: scale not given: the % may be the effect or the level left; conditions: dose 20 µg
Staphylococcus aureus [5] = experiment: Antibacterial activity against Staphylococcus aureus MLS-16 MTCC 2940 assessed as minimum bactericidal concentration incubated for 24 hrs by broth microdilution method; assay type: functional
Micrococcus luteus [6] = experiment: Antibacterial activity against Micrococcus luteus MTCC 2470 assessed as minimum bactericidal concentration incubated for 24 hrs by broth microdilution method; assay type: functional
Candida albicans [7] = experiment: Antifungal activity against Candida albicans MTCC 1637 assessed as inhibition of fungal growth incubated for 24 hrs by agar well diffusion method; assay type: functional
Pichia sporocuriosa = experiment: Antifungal activity against Pichia sporocuriosa MTCC 4755 assessed as inhibition of fungal growth incubated for 24 hrs by agar well diffusion method; assay type: functional
Escherichia coli [8] = experiment: Antibacterial activity against Escherichia coli MTCC 739 assessed as minimum bactericidal concentration incubated for 24 hrs by broth microdilution method; assay type: functional
Escherichia coli [9] = experiment: Antibacterial activity against Escherichia coli MTCC 739 assessed as bacterial growth inhibition incubated for 24 hrs by broth microdilution method; assay type: functional
Staphylococcus aureus [10] = experiment: Antibacterial activity against Staphylococcus aureus MTCC 96 assessed as minimum bactericidal concentration incubated for 24 hrs by broth microdilution method; assay type: functional
Staphylococcus aureus [11] = experiment: Antibacterial activity against Staphylococcus aureus MLS-16 MTCC 2940 assessed as bacterial growth inhibition incubated for 24 hrs by broth microdilution method; assay type: functional
Escherichia coli [12] = experiment: Antibiofilm activity against Escherichia coli MTCC 739 assessed as inhibition of biofilm incubated for 24 hrs by crystal violet staining based spectrophotometry; assay type: functional, organism-based; conditions: MTCC 739, 24 h
Candida albicans [13] = experiment: Antifungal activity against Candida albicans MTCC 227 assessed as inhibition of fungal growth incubated for 24 hrs by agar well diffusion method; assay type: functional
Nakaseomyces glabratus = experiment: Antifungal activity against Candida glabrata MTCC 3019 assessed as inhibition of fungal growth incubated for 24 hrs by agar well diffusion method; assay type: functional
Bacillus subtilis [14] = experiment: Antibacterial activity against Bacillus subtilis MTCC 121 assessed as minimum bactericidal concentration incubated for 24 hrs by broth microdilution method; assay type: functional
Candida parapsilosis = experiment: Antifungal activity against Candida parapsilosis MTCC 1744 assessed as inhibition of fungal growth incubated for 24 hrs by agar well diffusion method; assay type: functional; conditions: Lodderomyces parapsilosis
Candida albicans [15] = experiment: Antifungal activity against Candida albicans MTCC 854 assessed as inhibition of fungal growth incubated for 24 hrs by agar well diffusion method; assay type: functional
Bacillus subtilis [16] = experiment: Antibacterial activity against Bacillus subtilis MTCC 121 assessed as bacterial growth inhibition incubated for 24 hrs by broth microdilution method; assay type: functional
Micrococcus luteus [17] = experiment: Antibacterial activity against Micrococcus luteus MTCC 2470 assessed as bacterial growth inhibition incubated for 24 hrs by broth microdilution method; assay type: functional
Staphylococcus aureus [18] = experiment: Antibiofilm activity against Staphylococcus aureus MTCC 96 assessed as inhibition of biofilm incubated for 24 hrs by crystal violet staining based spectrophotometry; assay type: functional, organism-based; conditions: MTCC 96, 24 h
Micrococcus luteus [19] = experiment: Antibiofilm activity against Micrococcus luteus MTCC 2470 assessed as inhibition of biofilm incubated for 24 hrs by crystal violet staining based spectrophotometry; assay type: functional, organism-based; conditions: MTCC 2470, 24 h
Raoultella planticola [20] = experiment: Antibacterial activity against Raoultella planticola MTCC 530 assessed as bacterial growth inhibition incubated for 24 hrs by broth microdilution method; assay type: functional; conditions: Klebsiella planticola
Pichia kudriavzevii = experiment: Antifungal activity against Candida krusei MTCC 3020 assessed as inhibition of fungal growth incubated for 24 hrs by agar well diffusion method; assay type: functional
Candida albicans [21] = experiment: Antifungal activity against Candida albicans MTCC 183 assessed as inhibition of fungal growth incubated for 24 hrs by agar well diffusion method; assay type: functional
Staphylococcus aureus [22] = experiment: Antibacterial activity against Staphylococcus aureus MTCC 96 assessed as bacterial growth inhibition incubated for 24 hrs by broth microdilution method; assay type: functional
Raoultella planticola [23] = experiment: Antibacterial activity against Raoultella planticola MTCC 530 assessed as minimum bactericidal concentration incubated for 24 hrs by broth microdilution method; assay type: functional; conditions: Klebsiella planticola
Staphylococcus aureus [24] = experiment: Antibiofilm activity against Staphylococcus aureus MLS-16 MTCC 2940 assessed as inhibition of biofilm incubated for 24 hrs by crystal violet staining based spectrophotometry; assay type: functional, organism-based; conditions: MLS-16 MTCC 2940, 24 h
Raoultella planticola [25] = experiment: Antibiofilm activity against Raoultella planticola MTCC 530 assessed as inhibition of biofilm incubated for 24 hrs by crystal violet staining based spectrophotometry; assay type: functional, organism-based; conditions: Klebsiella planticola, MTCC 530, 24 h
Bacillus subtilis [26] = experiment: Antibiofilm activity against Bacillus subtilis MTCC 121 assessed as inhibition of biofilm incubated for 24 hrs by crystal violet staining based spectrophotometry; assay type: functional, organism-based; conditions: MTCC 121, 24 h

`CCCCCCCCn1cc(Cn2c(C)nc3c(c2=O)C(c2ccccc2)C(C(=O)OCC)=C(C)O3)nn1` (configuration not stated) was tested, and the IC50 (A549) was 3620 nM and the IC50 (HepG2 [1]) was 69800 nM.

`O=c1nc2oc3ccc4ccccc4c3cc-2c(=O)n1-c1ccccc1` showed an Activity (U-937) of 28.4%.

Compound `N#CC1=C(N)C2C(=NC(NN)=NC2c2ccc(Cl)cc2)OC1=O` (configuration not stated) has an IC50 (NUGC) of 328 nM, an IC50 (HepG2 [2]) of 263 nM and an IC50 (DLD-1) of 606 nM. It also gave an IC50 (MCF7) of 348 nM, an IC50 (HA22T cell line) of 282 nM and an IC50 (HONE1 cell line) of 201 nM.

`Cc1nc2c(c(=O)[nH]1)C(c1ccc([N+](=O)[O-])cc1)c1c(n[nH]c1C)O2` (configuration not stated) showed an Activity (Human alphaherpesvirus 1 [3]) of 95% and an Activity (Human alphaherpesvirus 1 [4]) of 63%.

`COc1ccc(Nc2ncnc3c2C(c2ccc(OC)cc2)c2c(cc(C)oc2=O)O3)cc1` (configuration not stated) showed an MBC (Staphylococcus aureus [5]) of 7.8 µg/mL (≈ 17.6 µM), an MBC (Micrococcus luteus [6]) of 7.8 µg/mL (≈ 17.6 µM) and an MIC (Candida albicans [7]) of 7.8 µg/mL (≈ 17.6 µM). The MIC (Pichia sporocuriosa) was 7.8 µg/mL (≈ 17.6 µM), the MBC (Escherichia coli [8]) was 7.8 µg/mL (≈ 17.6 µM) and the MIC (Escherichia coli [9]) was 7.8 µg/mL (≈ 17.6 µM). For the same compound, the MBC (Staphylococcus aureus [10]) was 7.8 µg/mL (≈ 17.6 µM), the MIC (Staphylococcus aureus [11]) was 15.6 µg/mL (≈ 35.2 µM) and the IC50 (Escherichia coli [12]) was 2500 nM. The MIC (Candida albicans [13]) was 7.8 µg/mL (≈ 17.6 µM), the MIC (Nakaseomyces glabratus) was 7.8 µg/mL (≈ 17.6 µM) and the MBC (Bacillus subtilis [14]) was 7.8 µg/mL (≈ 17.6 µM). For the same compound, the MIC (Candida parapsilosis) was 7.8 µg/mL (≈ 17.6 µM), the MIC (Candida albicans [15]) was 7.8 µg/mL (≈ 17.6 µM) and the MIC (Bacillus subtilis [16]) was 7.8 µg/mL (≈ 17.6 µM). For the same compound, the MIC (Micrococcus luteus [17]) was 15.6 µg/mL (≈ 35.2 µM), the IC50 (Staphylococcus aureus [18]) was 2500 nM and the IC50 (Micrococcus luteus [19]) was 2500 nM. The MIC (Raoultella planticola [20]) was 7.8 µg/mL (≈ 17.6 µM), the MIC (Pichia kudriavzevii) was 7.8 µg/mL (≈ 17.6 µM) and the MIC (Candida albicans [21]) was 7.8 µg/mL (≈ 17.6 µM). The MIC (Staphylococcus aureus [22]) was 15.6 µg/mL (≈ 35.2 µM), the MBC (Raoultella planticola [23]) was 7.8 µg/mL (≈ 17.6 µM) and the IC50 (Staphylococcus aureus [24]) was 2500 nM. It also gave an IC50 (Raoultella planticola [25]) of 2500 nM and an IC50 (Bacillus subtilis [26]) of 2500 nM.
